Laboratory results taken from article PMC6148290, “Endogenous metabolites of vitamin E limit inflammation by targeting 5-lipoxygenase” (Nature Communications, 2018).

Key:
LTB4 formation = LTB4 formation in LPS/fMLP-stimulated human blood; format: cell-based; settings: 100 nM
Experimental: (§1) LPS-activated monocytes were treated with A23187 (2.5 µM) and AA (20 µM) to induce lipid mediator biosynthesis as described for LO product formation. Human blood was pre-incubated with vehicle (DMSO) or α-T-13′-COOH (4a, 100 nM) for 10 min, primed with LPS (1 µg/ml) for 30 min and stimulated with N-formyl-methionyl-leucyl-phenylalanine (fMLP, Sigma-Aldrich; 1 µM) for 15 min at 37 °C.

5-LO = target: T1, 5-LO (Homo sapiens, UniProt P09917); assay: 5-LO product formation in activated PMNL; format: cell-based; design: Freshly isolated PMNL (1 × 10^7); endogenous in cells; host or cells: human PMNL freshly isolated from leukocyte concentrates
T1 sequence (P09917 1-674): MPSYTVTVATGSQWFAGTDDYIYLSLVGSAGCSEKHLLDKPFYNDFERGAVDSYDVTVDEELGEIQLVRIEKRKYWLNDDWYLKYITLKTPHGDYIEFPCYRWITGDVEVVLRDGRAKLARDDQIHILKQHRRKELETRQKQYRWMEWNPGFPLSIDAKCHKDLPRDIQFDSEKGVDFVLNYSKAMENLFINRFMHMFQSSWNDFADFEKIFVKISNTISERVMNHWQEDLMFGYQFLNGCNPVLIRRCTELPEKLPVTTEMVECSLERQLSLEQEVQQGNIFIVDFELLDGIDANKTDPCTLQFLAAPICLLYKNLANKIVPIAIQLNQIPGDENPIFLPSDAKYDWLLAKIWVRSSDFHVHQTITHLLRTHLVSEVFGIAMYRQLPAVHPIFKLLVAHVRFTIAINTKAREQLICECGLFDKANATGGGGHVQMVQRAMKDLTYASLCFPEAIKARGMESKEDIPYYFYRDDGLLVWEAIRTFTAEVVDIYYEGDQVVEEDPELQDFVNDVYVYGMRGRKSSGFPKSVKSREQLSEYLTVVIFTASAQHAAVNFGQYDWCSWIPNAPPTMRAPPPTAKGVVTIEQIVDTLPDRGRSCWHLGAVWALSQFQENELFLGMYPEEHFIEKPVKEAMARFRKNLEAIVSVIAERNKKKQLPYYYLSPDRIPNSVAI
From the text: Human PMNL, monocytes, PBMC, and platelets were freshly isolated from leukocyte concentrates. The protocols for experiments with human blood and blood cells were approved by the ethical commission of the Friedrich-Schiller-University Jena. […] PMNL were recovered from the pellet after hypotonic lysis of erythrocytes. Platelets were obtained from the supernatant and washed with PBS pH 5.9/0.9% NaCl (1:1). […]

COX-2 = target: T2, COX-2 (Homo sapiens, UniProt P35354); assay: COX-2-dependent PGE2 formation in LPS-activated monocytes; format: cell-based; design: endogenous in cells; host or cells: human monocytes, LPS-stimulated for 24 h; settings: up to 10 µM
T2 sequence (P35354 18-604): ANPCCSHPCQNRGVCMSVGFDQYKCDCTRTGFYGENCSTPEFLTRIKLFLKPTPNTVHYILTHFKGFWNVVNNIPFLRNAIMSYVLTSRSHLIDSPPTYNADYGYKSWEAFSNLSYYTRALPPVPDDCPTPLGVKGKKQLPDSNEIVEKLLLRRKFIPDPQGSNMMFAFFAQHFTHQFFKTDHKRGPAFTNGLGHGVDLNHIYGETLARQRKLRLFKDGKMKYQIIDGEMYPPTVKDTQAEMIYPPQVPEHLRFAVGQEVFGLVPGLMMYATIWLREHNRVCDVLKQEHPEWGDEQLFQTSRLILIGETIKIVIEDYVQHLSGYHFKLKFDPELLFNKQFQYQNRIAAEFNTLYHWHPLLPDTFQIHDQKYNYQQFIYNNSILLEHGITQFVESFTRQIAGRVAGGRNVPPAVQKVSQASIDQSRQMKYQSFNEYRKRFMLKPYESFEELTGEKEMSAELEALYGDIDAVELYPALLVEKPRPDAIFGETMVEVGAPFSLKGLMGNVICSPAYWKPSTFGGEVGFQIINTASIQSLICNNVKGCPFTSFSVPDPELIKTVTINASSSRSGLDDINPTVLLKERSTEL
Experimental: Cells were washed and medium was exchanged. Freshly isolated PMNL (1 × 10^7) and stably transfected HEK-293 (1 × 10^6) cells were suspended in PBS pH 7.4 containing 1 mg/ml glucose and 1 mM CaCl2. […] A23187- and A23187/AA-treated PMNL and A23187/AA-treated HEK-293 (5-LO_wt), HEK-293 (5-LO_3W) and HEK-293 (5-LO_Arg101Asp) cells produced 135 ± 21, 636 ± 112, 300 ± 59, 133 ± 29, 55 ± 9 ng 5-LO products, respectively. PMNL synthesized 29 ± 6 ng 12-HETE and 97 ± 23 ng 15-HETE when challenged with A23187/AA. 5-LO products from monocytes were analyzed by UPLC-MS/MS.
as §1

[1] = target: T3, human recombinant soluble epoxide hydrolase (sEH) (Homo sapiens, UniProt P34913); assay: sEH activity; format: biochemical
T3 construct: made in house; host or cells: Sf9 insect cells (recombinant baculovirus)
T3 sequence (P34913 1-555): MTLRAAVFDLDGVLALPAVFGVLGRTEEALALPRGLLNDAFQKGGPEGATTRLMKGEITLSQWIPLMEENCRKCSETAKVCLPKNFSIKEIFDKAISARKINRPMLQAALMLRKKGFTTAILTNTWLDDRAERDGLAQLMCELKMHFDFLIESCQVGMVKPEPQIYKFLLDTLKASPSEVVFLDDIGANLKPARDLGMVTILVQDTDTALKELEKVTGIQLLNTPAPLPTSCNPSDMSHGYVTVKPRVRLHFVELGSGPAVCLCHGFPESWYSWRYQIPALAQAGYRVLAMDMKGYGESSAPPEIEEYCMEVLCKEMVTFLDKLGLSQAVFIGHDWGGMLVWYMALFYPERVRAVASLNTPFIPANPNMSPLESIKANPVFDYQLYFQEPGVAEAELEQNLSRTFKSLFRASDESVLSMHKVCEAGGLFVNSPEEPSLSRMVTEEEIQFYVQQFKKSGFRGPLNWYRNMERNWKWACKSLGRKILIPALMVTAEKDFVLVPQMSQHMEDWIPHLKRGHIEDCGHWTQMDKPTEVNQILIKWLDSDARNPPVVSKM
Experimental: To investigate the effect of LCMs on sEH activity, we purified the human recombinant enzyme from sEH expressing Sf9 insect cells by benzylthio-sepharose affinity chromatography. […] The purified enzyme (60 ng) was diluted in 25 mM Tris HCl, pH 7 plus 0.1 mg/ml BSA and pre-incubated with LCMs for 10 min at room temperature. The enzymatic reaction was started by addition of PHOME (50 µM, Cayman Chemicals), which was converted to the fluorescent 6-methoxy-naphtaldehyde.

For Cc1c(C)c2c(c(C)c1O)CC[C@@](C)(CCCC(C)CCCC(C)CCCC(C)C(=O)O)O2 (stereo partly drawn) [4a, 13-((2R)-6-hydroxy-2,5,7,8-tetramethylchroman-2-yl)-2,6,10-trimethyltridecanoic acid], the “effect on LTB4 formation in activated human blood” value (LTB4 formation) was “inhibited”, the IC50 (5-LO) was 80 nM and the “inhibition of COX-2-dependent PGE2 formation in activated human monocytes” value (COX-2) was “not inhibited”. For the same molecule, the IC50 [1] was over 10000 nM.
